The values below come from paper doi:10.1101/2024.09.25.615046, “Identification of SLC45A4 as a pain gene encoding a neuronal polyamine transporter” (bioRxiv, 2024).

For experiment [1], the target named is T1, SLC45A4 (HsSLC45A4) (Homo sapiens, UniProt Q5BKX6).
T1 sequence (Q5BKX6 1-768): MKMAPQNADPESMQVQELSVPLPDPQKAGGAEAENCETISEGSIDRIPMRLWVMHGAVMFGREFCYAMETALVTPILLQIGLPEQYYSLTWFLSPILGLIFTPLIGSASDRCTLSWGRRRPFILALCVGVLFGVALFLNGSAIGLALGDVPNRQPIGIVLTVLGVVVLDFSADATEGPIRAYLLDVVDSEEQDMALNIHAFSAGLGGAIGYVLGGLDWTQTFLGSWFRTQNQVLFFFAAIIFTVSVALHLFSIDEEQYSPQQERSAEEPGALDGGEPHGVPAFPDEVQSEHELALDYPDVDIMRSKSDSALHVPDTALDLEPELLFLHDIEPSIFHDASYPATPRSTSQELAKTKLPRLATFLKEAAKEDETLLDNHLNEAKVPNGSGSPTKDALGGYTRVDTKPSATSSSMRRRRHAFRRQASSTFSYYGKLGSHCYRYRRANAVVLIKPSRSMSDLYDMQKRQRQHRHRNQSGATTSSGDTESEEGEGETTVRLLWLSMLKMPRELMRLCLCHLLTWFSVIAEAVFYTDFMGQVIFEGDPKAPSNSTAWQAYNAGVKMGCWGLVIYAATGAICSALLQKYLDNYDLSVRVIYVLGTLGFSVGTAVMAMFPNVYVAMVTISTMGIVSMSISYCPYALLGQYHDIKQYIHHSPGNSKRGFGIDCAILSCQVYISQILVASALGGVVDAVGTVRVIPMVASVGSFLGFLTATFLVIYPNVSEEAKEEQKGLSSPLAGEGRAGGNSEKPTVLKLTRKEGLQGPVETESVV
Briefly: competition of […]-spermidine uptake, Neuro-2A cells. The experiment is classed as cell-based. Details: full-length; uptake: C-terminal FLAG tag, pLexM, overexpressed in mouse Neuro-2A cells. Conditions: 1 uM 14C-spermidine, pH 7.5, 37 °C; unreliable unit: printed mM is probably µM (lost symbol font).

Experiment [2] has as its target T1, SLC45A4 (HsSLC45A4). Briefly: nanoDSF thermal shift, purified protein. Details: full-length; uptake: C-terminal FLAG tag, pLexM, overexpressed in mouse Neuro-2A cells; nanoDSF: purified in DDM:CHS (eGFP-His tag removed by TEV). Conditions: 2.5-50 mM metabolite, DDM:CHS, 150 mM NaCl, 20 mM Tris or MES pH 7.5. It counts as binding. Background: Differential scanning fluorimetry follows unfolding on heating by fluorescence.

As a reminder, the IC50 is the midpoint of a concentration-inhibition curve. Low values mean greater potency in that assay, high ones weaker potency in that assay. Molecule `NCCCCCN` [Cad] gave an IC50 on SLC45A4 (HsSLC45A4) [1] of 67 mM.
`NCCCCN` [Put] had an IC50 on SLC45A4 (HsSLC45A4) [1] of 74 mM.
For the molecule `NCCCCNCCCN` [Spd], on SLC45A4 (HsSLC45A4) [2], the thermal stability entry is “polyamines Spm and Spd eliciting the largest response”.
On the same count and under the same terms, with `NCCCNCCCCNCCCN` [Spm] the entry was “polyamines Spm and Spd eliciting the largest response”.
